Results reported in patent US20110287110A1, “COMBINATION CANCER TREATMENT” (priority 2010, published 2011).

What was measured:
[1] = system: bladder cancer cell lines (5637, J82, RT4, MB49, MBT2, NBT2); test: Clonogenic survival assay, sensitivity to cisplatin in bladder cancer cell lines; assay type: cell-based, human and rodent; conditions: cells expressing higher basal levels of Ctr1 (5637 and MBT2) vs other lines; cisplatin 1, 5, 10, or 50 μM for 2 hours; FIG. 1
Procedure: Bladder cell lines (5637, J82, RT4, MB49, MBT2, and NBT2) were kindly provided by Brant A. Inman, MD. J82, NBT2, MB49, and MBT2 cells were cultured in Dulbecco's modified Eagle's medium (DMEM) containing 10% fetal bovine serum (FBS) and 1% antibiotic-antimycotic (AA; Invitrogen). RT4 and 5637 cells were cultured in McCoy's 5A modified medium and RPMI-1640 medium, respectively, containing 10% FBS and 1% AA. The WT and Ctr1−/− MEF cell lines as well as the Ctr1 antibody were kindly provided by Dennis J. Thiele, PhD. MEF cells were cultured in DMEM containing 20% FBS, 1% L-Glutamine-Penicillin-Streptomycin (Sigma), 1% sodium pyruvate, 1% nonessential amino acids, 0.5 mg/L uridine (Sigma), and 55 μM 2-mercaptoethanol. […]
Basal Ctr1 protein expression was assessed using Western blot in several different human (5637, J82, and RT4) and rodent (MB49, MBT2, and NBT2) bladder cancer cell lines. […] Samples were centrifuged at 12,000 rpm, and 100 μg of protein was separated using 4-20% SDS-PAGE, transferred to PVDF membrane and detected by chemiluminescence using anti-Ctr1 antibody (1:1000; kindly provided by Dennis J. Thiele, PhD) followed by anti-rabbit HRP antibody (1:2000; Bio-Rad). Sensitivity to cisplatin was assessed using a clonogenic survival assay. […] Cells were incubated until colonies (50+ cells) were detected (7-14 days). Colonies were then stained using crystal violet and counted.

[2] = system: WT and Ctr1−/− mouse embryonic fibroblasts (MEFs); test: Clonogenic survival assay, sensitivity to cisplatin in WT and Ctr1−/− MEFs; assay type: cell-based; conditions: cisplatin 1, 5, or 10 μM for 2 hours, FIG. 2
Procedure: (§1) Bladder cell lines (5637, J82, RT4, MB49, MBT2, and NBT2) were kindly provided by Brant A. Inman, MD. J82, NBT2, MB49, and MBT2 cells were cultured in Dulbecco's modified Eagle's medium (DMEM) containing 10% fetal bovine serum (FBS) and 1% antibiotic-antimycotic (AA; Invitrogen). RT4 and 5637 cells were cultured in McCoy's 5A modified medium and RPMI-1640 medium, respectively, containing 10% FBS and 1% AA. The WT and Ctr1−/− MEF cell lines as well as the Ctr1 antibody were kindly provided by Dennis J. Thiele, PhD. MEF cells were cultured in DMEM containing 20% FBS, 1% L-Glutamine-Penicillin-Streptomycin (Sigma), 1% sodium pyruvate, 1% nonessential amino acids, 0.5 mg/L uridine (Sigma), and 55 μM 2-mercaptoethanol. All cells were maintained at 37° C. and at 5% CO2.
Basal Ctr1 protein expression was assessed using western blot in WT and Ctr1−/− mouse embryonic fibroblasts (MEFs). Sensitivity to cisplatin was assessed using a clonogenic survival assay. Briefly, a known density of cells was plated in 6-well plates. Approximately 18-24 hours after plating, cells were exposed to cisplatin (1, 5, or 10 μM; APP Pharmaceuticals; 50 mg/50 mL) or saline for 2 hours. […] Cells were incubated until colonies (50+ cells) were detected (7-14 days). Colonies were then stained using crystal violet and counted.

WT and Ctr1−/− MEFs [3] = test: Cisplatin uptake/accumulation (intracellular platinum by ICP-AES) in MEFs; assay type: cell-based, mouse; conditions: cisplatin 100 μg/mL
Procedure: as §1
WT and Ctr1−/− MEFs were plated into T175 flasks and treated with concurrent hyperthermia (42° C.) or normothermia (37° C.) and cisplatin (100 μg/mL; APP Pharmaceuticals; 50 mg/50 mL) for 1 hour. Following this 1 hour incubation, cells were incubated with cisplatin for an additional hour at 37° C. Cells were then washed twice with PBS and harvested into 1 mL of 3N HCl and 10% TCA. Samples were digested at 70° C. for 18 hours and centrifuged at 20,800×g for 5 minutes. The supernatants were collected, and intracellular platinum accumulation was measured using inductively coupled plasma atomic emission spectroscopy (ICP-AES) at the EPA, Chapel Hill, N.C.

WT and Ctr1−/− MEFs [4] = test: Platinum-DNA adduct formation (immunofluorescence) in MEFs; assay type: cell-based, mouse; conditions: WT compared to Ctr1−/− cells, particularly following hyperthermia; 50 μg/mL cisplatin; FIG. 4
Procedure: as §1
WT and Ctr1−/− MEFs were plated on coverslips (80,000-90,000 cells) in 6-well plates. Approximately 24-48 hours after plating, cells were treated with or without concurrent mild hyperthermia (42° C.) or normothermia (37° C.) and 50 μg/mL cisplatin (APP Pharmaceuticals; 50 mg/50 mL) for 1 hour. Following this initial 1 hour treatment, cells were incubated for 3 additional hours at 37° C. Following treatment, platinum-DNA adducts were stained using immunofluorescence. […] Cells were imaged using a Zeiss Axio Imager widefield fluorescence microscope (Carl Zeiss MicroImaging).

Ctr1 = conditions: cells with Ctr1 deleted; Ishida et al. 2002, Larson et al. 2009; cited from earlier work

N.N.[Cl][Pt][Cl] [cisplatin, cis-diamminedichloroplatinum (II)]
Sensitivity to cisplatin (clonogenic survival) [1]: more sensitive
Sensitivity to cisplatin (clonogenic survival) ([2]; Ctr1−/− MEFs (do not express Ctr1)): more resistant
Sensitivity to cisplatin (clonogenic survival) ([2]; WT MEFs (higher basal Ctr1)): more sensitive
Further increase in platinum uptake after hyperthermia (WT and Ctr1−/− MEFs [3]; Ctr1−/− cells, hyperthermia 42° C. vs normothermia 37° C.): not observed
Platinum levels (intracellular platinum accumulation) (WT and Ctr1−/− MEFs [3]; WT cells compared to Ctr1−/− cells, with and without hyperthermia (42° C.), FIG. 3): Higher platinum levels
Platinum uptake after hyperthermia (WT and Ctr1−/− MEFs [3]; WT cells, hyperthermia 42° C. vs normothermia 37° C.): further increase
Percentages of adduct-positive cells and adduct formation (WT and Ctr1−/− MEFs [4]): Higher
Cisplatin resistance (Ctr1): increased
Cisplatin uptake (Ctr1): decreased
